Assay results taken from ChEMBL document CHEMBL1151024, “Synthesis and cardiotonic activity of 2,9-dihydro-6-(5-methyl-3-oxo-2,3,4,5-tetrahydropyridazin-6-yl)pyrazolo[4,3-b][1,4]benzoxazine” (Bioorg Med Chem Lett, 1993).
≈ marks a conversion by molar mass, not a printed value.

Columns and labels:
[1] = Solubility in 1 M HCl; type: physicochemical; conditions: read-out: S
Canis familiaris [2] = test: The mean arterial blood pressure drop after administration was determined; type: functional, Canis lupus familiaris
Canis familiaris [3] = test: Maximum increase in cardiac force at 75 ug/Kg was observed in an anesthetized dog model(iv); type: functional, Canis lupus familiaris
Canis familiaris [4] = organism: Canis familiaris; test: The differential (dp/dt) maximal rise in blood pressure with respect to time was evaluated; type: functional, Canis lupus familiaris
Canis familiaris [5] = test: Tested for effective dose required to produce cardiotonic activity after intravenous administration in anesthetized dog model; type: functional; conditions: Canis lupus familiaris
[6] = Solubility in 1 M HCl; compound is insoluble; type: physicochemical; conditions: buffer
Canis familiaris [7] = test: The high peak activity was evaluated at a dose of 35 ug/kg intravenously in dog; type: functional, Canis lupus familiaris

Row | solubility [1] | S [6] | SMILES | Decrease in blood pressure (Canis familiaris [2]) | Increase (Canis familiaris [3]) | Change (Canis familiaris [4]) | ED50 (Canis familiaris [5]) | Activity (Canis familiaris [7])
1 | 300 µg/mL (≈ 1060 µM) | – | CC1CC(=O)NN=C1c1ccc2c(c1)Oc1cn[nH]c1N2 (centres undefined) | 21% | 256% | 119% | 0.015 mg/kg | –
2 | – | Insoluble | CC1CC(=O)NN=C1c1ccc2c(c1)OCC(=O)N2 (centres undefined) [BEMORADAN] | – | 127% | – | 0.0054 mg/kg | 200
